For the assay, the system named is blood cells. Put plainly: Hemolysis of blood cells on blood retention tool (plasma colored red with Hb). The class given is cell-based. Particulars: tools of Example 4 / Comparative Example 4; glycine as 5% solution. The procedure:
Blood cell separation was carried out using this tool, and the presence or absence of hemolysis was determined. In the following, unless otherwise stated, the concentration (%) of a hemolysis inhibitor in a hemolysis inhibitor solution is represented by a percentage (unit: (w/v) %) of the weight (unit: g) of the hemolysis inhibitor with respect to the volume (100 ml) of a solvent.
Hemolysis inhibitors were dissolved in solvents (distilled water) beforehand to prepare hemolysis inhibitor solutions shown in Table 1 below. […]
On the glass filter surface of each of the thus-obtained blood retention tools, 100 μl of whole blood (hematocrit: 38%) was dropped to cause the separation of blood cells and plasma and the development of the plasma. Then, after a lapse of 2 minutes, the presence or absence of hemolysis of the blood cells was determined. […]
Blood retention tools (Example 3-1 and 3-2) were produced in the same manner as in Example 1, except that the following development porous membranes (a filter paper and a cellulose acetate membrane) and blood cell separation porous membranes (glass filters) were used and valine was used as the hemolysis inhibitors. […] Using these blood retention tools, blood cell separation was carried out and the presence or absence of hemolysis and the development of blood cells were determined in the same manner as in Examples 1 and 2.

Molecules are shown by their SMILES.

Turning to `NCC(=O)O` [Gly, glycine], the hemolysis entry is recorded as “occurrence of hemolysis was observed”.

Source of the values: US20090145840A1, “BLOOD CELL SEPARATION MEMBRANE AND BLOOD RETENTION TOOL USING THE SAME” (ARKRAY, Inc., priority 2003, published 2009).
